Source: publication PMC9501832 (Pharmaceutics, 2022)
Where two headings read alike, the source gives them in different places.

Columns and labels:
[1] = molecular target: phosphodiesterase enzyme type 5 (PDE5) (Homo sapiens, UniProt O76074); experiment: In vitro enzyme assay (Transcreener fluorescence polarization); assay type: biochemical; details: 10-dose, 3-fold serial dilution starting at 50 uM
Procedure: Tested compounds (series B, D, E and G) were tested against phosphodiesterase enzyme type 5 (PDE5) in order to investigate their inhibitory activities. The in vitro enzyme assay was conducted using Transcreener Fluorescence polarization assay to detect the reaction product GMP. The compounds were suspended in DMSO to make 10 mM stock solutions. The procedure was conducted using the following buffer system; 10 mM Tris, pH 7.5, 5 mM MgCl2, 0.01% Brij 35, 1 mM DTT and 1% DMSO. […] The tested samples were added into the enzyme by Acoustic Technology. The substrate was added and incubated for 1 h. Fluorescence polarization (FP) was measured after 90 min incubation at rt and mP was calculated. Data were analyzed based on the GMP standard curve.

[2] = system: PDE5; details: training set, supplement reference list, read-out: PDE5 IC50 Experimental, cited from earlier work

| melting point [°C] | IC50 [1] [nM] | Compound | also measured |
| --- | --- | --- | --- |
| 218 to 220 | – | O=C(Cc1nc2ncccc2[nH]c1=O)NNC(=O)Nc1ccccc1 [Compound 5a] | – |
| 230 to 232 | – | O=C(Cc1nc2ncccc2[nH]c1=O)NNC(=O)Nc1ccc(Cl)cc1 [Compound 5b] | – |
| 234 to 236 | – | O=C(Cc1nc2ncccc2[nH]c1=O)NNC(=S)Nc1ccccc1 [Compound 5c] | – |
| 228 to 230 | 59.1 | O=C(Cc1nc2ncccc2[nH]c1=O)N/N=C/c1ccccc1 [Compound 6a] | – |
| – | 67.9 | O=C(Cc1nc2ncccc2[nH]c1=O)N/N=C/c1ccc([N+](=O)[O-])cc1 [Compound 6b] | – |
| 222 to 224 | 47 | COc1ccc(/C=N/NC(=O)Cc2nc3ncccc3[nH]c2=O)cc1 [Compound 6c] | – |
| 248 to 250 | 101 | O=c1[nH]c2cccnc2nc1CNc1ccccc1 [Compound 8d] | – |
| 258 to 260 | 21 | Cc1cccc(NCc2nc3ncccc3[nH]c2=O)c1 [Compound 8f] | – |
| 284 to 286 | – | Cc1ccc(NCc2nc3ncccc3[nH]c2=O)cc1 [Compound 8g] | – |
| > 300 | – | O=c1[nH]c2cccnc2nc1CNc1ccc(Cl)cc1 [Compound 8h] | – |
| > 300 | 137 | O=c1[nH]c2cccnc2nc1CNc1ccc(Br)cc1 [Compound 8i] | – |
| 292 to 293 | – | O=c1[nH]c2cccnc2nc1CN(c1ccccc1)c1ccccc1 [Compound 8j] | – |
| 234 to 236 | 32.2 | O=c1[nH]c2cccnc2nc1CN/N=C/c1ccccc1 [Compound 9a] | – |
| 237 to 239 | 30.4 | O=c1[nH]c2cccnc2nc1CN/N=C/c1ccc(Cl)cc1 [Compound 9b] | – |
| 238 to 240 | 41.4 | O=c1[nH]c2cccnc2nc1CN/N=C/c1ccc([N+](=O)[O-])cc1 [Compound 9c] | – |
| 256 to 258 | 32.3 | COc1ccc(/C=N/NCc2nc3ncccc3[nH]c2=O)cc1 [Compound 9d] | – |
| 230 to 233 | 29.4 | C/C(=N\NCc1nc2ncccc2[nH]c1=O)c1ccccc1 [Compound 9e] | – |
| 220 to 222 | – | O=c1[nH]c2cccnc2nc1Cc1n[nH]c(=O)n1-c1ccccc1 [Compound 10a] | – |

Continued, compound first:

| Compound | melting point [°C] | IC50 [1] [nM] | also measured |
| --- | --- | --- | --- |
| O=C(Cc1nc2ncccc2[nH]c1=O)NN1C(=O)CCC1=O [Compound 7a] | 210 to 212 | – | – |
| O=C(Cc1nc2ncccc2[nH]c1=O)NN1C(=O)C=CC1=O [Compound 7b] | 213 to 215 | – | – |
| O=C(Cc1nc2ncccc2[nH]c1=O)NN1C(=O)c2ccccc2C1=O [Compound 7c] | 211 to 213 | – | – |
| CCN(CC)Cc1nc2ncccc2[nH]c1=O [Compound 8a] | 262 to 263 | 93.8 | – |
| O=c1[nH]c2cccnc2nc1CN1CCCCC1 [Compound 8b] | 277 to 279 | 44.6 | – |
| O=c1[nH]c2cccnc2nc1CN1CCOCC1 [Compound 8c] | 234 to 235 | 89 | – |
| O=c1[nH]c2cccnc2nc1Cc1n[nH]c(=S)n1-c1ccccc1 [Compound 10c] | 219 to 222 | – | – |
| CC(=O)N1N=C(Cc2nc3ncccc3[nH]c2=O)OC1c1ccccc1 (centres unmarked) [Compound 11a] | 234 to 236 | 26.3 | – |
| CC(=O)N1N=C(Cc2nc3ncccc3[nH]c2=O)OC1c1ccc([N+](=O)[O-])cc1 (centres unmarked) [Compound 11b] | 240 to 242 | 18.1 | – |
| COc1ccc(C2OC(Cc3nc4ncccc4[nH]c3=O)=NN2C(C)=O)cc1 (centres unmarked) [Compound 11c] | 235 to 237 | 31 | – |
| O=C1Nc2cccnc2N2C1=CNN=C2c1ccccc1 [Compound 12a] | 219 to 221 | – | – |
| O=C1Nc2cccnc2N2C1=CNN=C2c1ccc(Cl)cc1 [Compound 12b] | 222 to 225 | – | – |
| O=C1Nc2cccnc2N2C1=CNN=C2c1ccc([N+](=O)[O-])cc1 [Compound 12c] | 222 to 224 | – | – |
| COc1ccc(C2=NNC=C3C(=O)Nc4cccnc4N32)cc1 [Compound 12d] | 229 to 231 | – | – |
| CCCc1nn(C)c2c(=O)[nH]c(-c3cc(S(=O)(=O)N4CCN(C)CC4)ccc3OCC)nc12 [t1, Sildenafil] | – | – | IC50 ([2]; ref [1]): 2.2 nM |

| Compound | melting point [°C] | IC50 [1] [nM] | also measured |
| --- | --- | --- | --- |
| CN1CC(=O)N2[C@H](c3ccc4c(c3)OCO4)c3[nH]c4ccccc4c3C[C@@H]2C1=O [t3, Tadalafil] | – | – | IC50 ([2]; ref [1]): 1.2 nM |
| COc1ccc(CNC(=O)c2cc([N+](=O)[O-])ccc2NC(C)CO)cc1OC (centres unmarked) [t5, Benzamidenafil] | – | – | IC50 ([2]; ref [3]): 1.1 nM |
| COc1ccc(CN=c2[nH]c(N3CCC[C@H]3CO)ncc2C(=O)NCc2ncccn2)cc1Cl [t6, Avanafil] | – | – | IC50 ([2]; ref [5]): 5.2 nM |
| CCCc1nn(C)c2c(=O)[nH]c(-c3cc(S(=O)(=O)N4CCN(CC)CC4)ccc3OCC)nc12 [t7, Homosildenafil] | – | – | IC50 ([2]; ref [5]): 3.8 nM |
| CCCc1nn(C)c2c(=O)[nH]c(-c3cc(S(=O)(=O)N4CCN(CCO)CC4)ccc3OCC)nc12 [t8, Hydroxyhomosildenafil] | – | – | IC50 ([2]; ref [5]): 3.4 nM |
| CCCc1nn(C)c2c(=O)[nH]c(-c3cc(C(=O)CN4CCN(CC)CC4)ccc3OCC)nc12 [t9, Acetildenafil] | – | – | IC50 ([2]; ref [5]): 7.6 nM |
| CCCc1nn(C)c2c(=O)[nH]c(-c3cc(C(=O)CN4CCN(CCO)CC4)ccc3OCC)nc12 [t10, Hydroxyacetildenafil] | – | – | IC50 ([2]; ref [5]): 58.4 nM |
| CCCc1nn(C)c2c(=S)nc(-c3cc(S(=O)(=O)N4CCN(C)CC4)ccc3OCC)[nH]c12 [t11, Thiosildenafil] | – | – | IC50 ([2]; ref [5]): 0.6 nM |
| CCCOc1ccc(S(=O)(=O)NCCC2CCCN2C)cc1-c1nc2c(CCC)nn(C)c2c(=O)[nH]1 (centres unmarked) [t13, Udenafil] | – | – | IC50 ([2]; ref [6]): 8.3 nM |
| CCCc1nn(C)c2c(=S)nc(-c3cc(S(=O)(=O)N4C[C@@H](C)N[C@@H](C)C4)ccc3OCC)[nH]c12 [t15, Thioaildenafil] | – | – | IC50 ([2]; ref [3]): 0.6 nM |
| CCCc1nn(C)c2c(=O)[nH]c(-c3cc([N+](=O)[O-])ccc3OCC)nc12 [t16, Nitrodenafil] | – | – | IC50 ([2]; ref [3]): 67.4 nM |
| CCCc1nn(C)c2c(=O)[nH]c(-c3cc(C(=O)CN4C[C@@H](C)N[C@@H](C)C4)ccc3OCC)nc12 [t17, Dimethylacetildenafil] | – | – | IC50 ([2]; ref [3]): 51.2 nM |
| NN1CC(=O)N2[C@H](c3ccc4c(c3)OCO4)c3[nH]c4ccccc4c3C[C@@H]2C1=O [t116, Aminotadalafil] | – | – | IC50 ([2]; ref [5]): 4.2 nM |
| Carbodenafil [t12] | – | – | IC50 ([2]; ref [6]): 5.2 nM |
